Measurements as given in paper PMC9144902, “Metal(II) Complexes of the Fluoroquinolone Fleroxacin: Synthesis, Characterization and Biological Profile” (Pharmaceutics, 2022).

Experiments:
Experiment in all cases: Antimicrobial activity, MIC determination
Type in all cases: cell-based
[1] = system: Xanthomonas campestris ATCC 1395; settings: X. campestris; 24-h incubation, 28°C
Experimental: (§1) The in vitro antimicrobial activity of the compounds was evaluated by determining the minimum inhibitory concentration (MIC) against the Gram-positive microorganisms Staphylococcus aureus ATCC 6538 (S. aureus) and Bacillus subtilis ATCC 6633 (B. subtilis) and the Gram-negative microorganism Xanthomonas campestris ATCC 1395 (X. campestris). The affinity of the compounds for bovine serum albumin (BSA) and human serum albumin (HSA) was studied by fluorescence emission spectroscopy, and the corresponding binding constants were determined. Furthermore, the interaction of the compounds with calf-thymus DNA (CT DNA) was investigated to determine the possible mode of interaction by the following methods: (i) UV–vis spectroscopy (where the DNA-binding constants of the complexes (Kb) were also determined), (ii) DNA-viscosity measurements, (iii) cyclic voltammetry and (iv) competitive DNA-binding studies with the classic intercalator ethidium bromide (EB) performed by fluorescence emission spectroscopy.
(§2) Three bacterial strains, one Gram(−) (X. campestris) and two Gram(+) (S. aureus and B. subtilis), were used in order to test the antimicrobial activity of the compounds.
(§3) The antimicrobial activity of the compounds was evaluated b y determining their respective MIC values towards one Gram–( –) (Xanthomonas campestris ATCC 1395 (X. campestris)) and two Gram–(+) (Staphylococcus aureus ATCC 6538 (S. aureus) and Bacillus subtilis ATCC 6633 (B. subtilis)) bacterial species. Cultures of these microbial strains were grown on a rich selective agar medium and stored at 4°C. The selective media used were Nutrient Agar or Broth for B. subtilis and S. aureus, and Yeast Mold Agar or Broth for X. campestris . Cells picked from the surface of the stored cultures were used to initiate liquid pre–cultures of the same selective medium at an initial turbidity of roughl y 1 McFarland unit. Pre–cultures were incubated for 24 h in a rotar y sh aking incubator and subsequently the y were used to inoculate the test cultures used for the determination of MIC at an initial turbidity of 0.5 McFarland units. The test cultures consisted of Mueller–Hinton broth (Deben Diagnostics Ltd) containing different concentrations of the compounds. Different concentrations were achieved as follows: the compounds were freshly dissolved in DMSO to a concentration of 1 mg/mL and they were diluted with DMSO, using the method of progressive double dilution. Therefore, working solutions with decreasing concentrations of the compounds under investigation were achieved. The working solutions were subsequently diluted to the final desired concentration b y addition to the growth medium at a proportion of 2:98. MIC values were determined as the lowest concentrations of the tested compounds that inhibited visible growth of each respective organism after a 24–h incubation [ S1]. Bacterial growth was determined b y measuring the turbidit y of appropriatel y diluted cultures at 600 nm with reference to equall y diluted sterile growth medium and the inhibition achieved was calculated b y comparing the turbidit y of each culture to the average of the turbidit y of three non–inhibited cultures. All test cultures were grown in triplicates and for the determination of MIC, growth had to be inhibited in at least two cultures of the triplicate. In cubation temperatur e at all stages was 37°C ex cept for X. campestris t h at was cultivated at 28°C [S2]. […]
(§4) The fluorescence spectra of the compounds were recorded under the same experimental conditions and presented a low–intensity emission band in the region 405–410 nm .

[2] = system: Staphylococcus aureus ATCC 6538; settings: S. aureus; 24-h incubation, 37°C
Experimental: as §1, §2, §3, §4

[3] = system: Bacillus subtilis ATCC 6633; settings: B. subtilis; 24-h incubation, 37°C
Experimental: as §1, §2, §3, §4

SMILES	MIC [1] [µg/mL]	MIC (values in parentheses) [1] [µM]	MIC [2] [µg/mL]	MIC (values in parentheses) [2] [µM]	MIC [3] [µg/mL]	MIC (values in parentheses) [3] [µM]
CN1CCN(c2c(F)cc3c(=O)c(C(=O)[O-])cn(CCF)c3c2F)CC1.CN1CCN(c2c(F)cc3c(=O)c(C(=O)[O-])cn(CCF)c3c2F)CC1.[Cu+2] [complex 1, [Cu(flrx)2]]	8	10.0	8	10.0	8	10.0
CN1CCN(c2c(F)cc3c(=O)c(C(=O)[O-])cn(CCF)c3c2F)CC1.CN1CCN(c2c(F)cc3c(=O)c(C(=O)[O-])cn(CCF)c3c2F)CC1.O.O.[Mn+2] [complex 2, [Mn(flrx)2(H2O)2]]	16	18.7	4	4.7	4	4.7
CN1CCN(c2c(F)cc3c(=O)c(C(=O)[O-])cn(CCF)c3c2F)CC1.CN1CCN(c2c(F)cc3c(=O)c(C(=O)[O-])cn(CCF)c3c2F)CC1.CO.CO.[Co+2] [complex 4, [Co(flrx)2(MeOH)2]]	16	18.6	4	4.6	8	9.3
CN1CCN(c2c(F)cc3c(=O)c(C(=O)[O-])cn(CCF)c3c2F)CC1.CN1CCN(c2c(F)cc3c(=O)c(C(=O)[O-])cn(CCF)c3c2F)CC1.CO.CO.[Ni+2] [complex 5, [Ni(flrx)2(MeOH)2]]	16	18.6	4	4.6	4	4.6
CN1CCN(c2c(F)cc3c(=O)c(C(=O)[O-])cn(CCF)c3c2F)CC1.[Cl-].[Cu+2].c1ccc(-c2ccccn2)nc1 [complex 6, [Cu(flrx)(bipy)Cl]]	8	12.8	4	6.4	8	12.8
CN1CCN(c2c(F)cc3c(=O)c(C(=O)[O-])cn(CCF)c3c2F)CC1.[Cl-].[Cu+2].c1ccc(Nc2ccccn2)nc1 [complex 7, [Cu(flrx)(bipyam)Cl]]	> 32	> 50.0	> 16	> 25.0	> 16	> 25.0
CN1CCN(c2c(F)cc3c(=O)c(C(=O)[O-])cn(CCF)c3c2F)CC1.[Cl-].[Cu+2].c1cnc2c(c1)ccc1cccnc12 [complex 8, [Cu(flrx)(phen)Cl]]	8	12.3	8	12.3	8	12.3
CN1CCN(c2c(F)cc3c(=O)c(C(=O)[O-])cn(CCF)c3c2F)CC1.CN1CCN(c2c(F)cc3c(=O)c(C(=O)[O-])cn(CCF)c3c2F)CC1.[Mn+2].c1ccc(-c2ccccn2)nc1 [complex 9, [Mn(flrx)2(bipy)]]	16	16.9	8	8.4	8	8.4
CN1CCN(c2c(F)cc3c(=O)c(C(=O)[O-])cn(CCF)c3c2F)CC1.CN1CCN(c2c(F)cc3c(=O)c(C(=O)[O-])cn(CCF)c3c2F)CC1.[Mn+2].c1ccc(Nc2ccccn2)nc1 [complex 10, [Mn(flrx)2(bipyam)]]	> 32	> 33.2	16	16.6	16	16.6
CN1CCN(c2c(F)cc3c(=O)c(C(=O)[O-])cn(CCF)c3c2F)CC1.CN1CCN(c2c(F)cc3c(=O)c(C(=O)[O-])cn(CCF)c3c2F)CC1.[Mn+2].c1cnc2c(c1)ccc1cccnc12 [complex 11, [Mn(flrx)2(phen)]]	16	16.4	8	8.2	8	8.2
CN1CCN(c2c(F)cc3c(=O)c(C(=O)[O-])cn(CCF)c3c2F)CC1.CN1CCN(c2c(F)cc3c(=O)c(C(=O)[O-])cn(CCF)c3c2F)CC1.[Co+2].c1ccc(-c2ccccn2)nc1 [complex 15, [Co(flrx)2(bipy)]]	16	16.8	4	4.2	8	8.4
CN1CCN(c2c(F)cc3c(=O)c(C(=O)[O-])cn(CCF)c3c2F)CC1.CN1CCN(c2c(F)cc3c(=O)c(C(=O)[O-])cn(CCF)c3c2F)CC1.[Co+2].c1ccc(Nc2ccccn2)nc1 [complex 16, [Co(flrx)2(bipyam)]]	16	16.5	8	8.3	8	8.3
CN1CCN(c2c(F)cc3c(=O)c(C(=O)[O-])cn(CCF)c3c2F)CC1.CN1CCN(c2c(F)cc3c(=O)c(C(=O)[O-])cn(CCF)c3c2F)CC1.[Co+2].c1cnc2c(c1)ccc1cccnc12 [complex 17, [Co(flrx)2(phen)]]	16	16.0	8	8.0	8	8.0
CN1CCN(c2c(F)cc3c(=O)c(C(=O)[O-])cn(CCF)c3c2F)CC1.CN1CCN(c2c(F)cc3c(=O)c(C(=O)[O-])cn(CCF)c3c2F)CC1.[Ni+2].c1ccc(Nc2ccccn2)nc1 [complex 18, [Ni(flrx)2(bipyam)]]	32	33.0	8	8.3	8	8.3
CN1CCN(c2c(F)cc3c(=O)c(C(=O)[O-])cn(CCF)c3c2F)CC1.CN1CCN(c2c(F)cc3c(=O)c(C(=O)[O-])cn(CCF)c3c2F)CC1.[Ni+2].c1cnc2c(c1)ccc1cccnc12 [complex 19, [Ni(flrx)2(phen)]]	16	16.4	8	8.2	8	8.2
